The source of these data is patent US20150164762A1, “USE OF ETHANOLAMINE PHOSPHATE” (priority 2012, published 2015).

One series deals with HBEpC cells. Kind of series: WST-8 proliferation test, primary normal human airway epithelial cells (HBEpC). The format is cell-based. The procedure:
BEGM (Takara Bio, complete medium) was used as the medium. […] Following medium replacement, 10 μl per well of an EP solution of 10 times the set concentration was added, and after 96 hours a proliferation test (WST-8 assay) was performed.
Background: Formazan colour is commonly taken as a measure of viable cells.

In the next series the test system is caspase 3/7. Kind of series: Serum-free stress-induced caspase 3/7 activity (Caspase-Glo3/7 assay) per cell. Format: cell-based, human. The note with it: 0% FBS, 24 hours. The procedure:
After medium replacement, 10 μl per well of EP or FBS solution was added. After 24 hours, a proliferation test (WST-8 assay) and caspase 3/7 assay (Caspase-Glo3/7 assay, Promega) were performed. […] Caspase 3/7 activity was measured by a luminescence test, the blank average was subtracted, and this was divided by the corrected absorbance (corresponding to relative cell number) from the WST-8 assay to calculate the caspase 3/7 activity per cell.

A further series deals with HHDPC cells. Kind of series: WST-8 proliferation test, primary normal human hair dermal papilla cells (HHDPC). How it is done: HHDPC cells (Cosmo Bio) were seeded to 1×10^4 cells/cm^2 on a 96-well plate. Complete MSCM medium (500, ScienCell) was used as the medium. After 24 hours, the cells were washed gently with 200 μl per well of PBS, the medium was replaced with 90 μl per well of 0% FBS DMEM with 1 vol % of complete MSCM medium added thereto, and the cells were cultured for 24 hours. After culture, 10 μl per well of EP solution was added, and a proliferation test (WST-8 assay) was performed 6 days after EP administration. The WST-8 assay was performed as in Example 1. The same test was performed using minoxidil, which has a clinical hair growth effect.

The test system of a further series is HEKa cells. As to the kind of experiment: WST-8 proliferation test, primary normal keratinocytes (HEKa). The format is cell-based, human. As to conditions: Epilife basal medium, 21 days. How it is done:
HEKa cells (Takara Bio) were seeded to 2×10^4 cells/cm^2 on a 48-well plate. Epilife basal medium (M-EPI-500-CA, Invitrogen) with HKGS Kit (S-001-K, Invitrogen) as an added factor was used as the medium. This HKGS Kit contains bovine pituitary extract, bovine insulin, hydrocortisone, bovine transferrin and human EGF.

For the next series, the system named is BEAS-2B cells. Kind of series: WST-8 proliferation test, BEAS-2B cells at different FBS concentrations. Format: cell-based, human. The procedure:
10% FBS RPMI-1640 was used as the medium. […] Following medium replacement, 10 μl/well of EP solution was added. A proliferation test (WST-8 assay) was performed after 96 hours. The operations of the WST-8 assay were as follows.
(1) The medium was removed from the 96-well plate by decantation and tapping.
(2) WST-8 reagent (Dojindo) was mixed to a ratio of 1:10 with serum-free medium (RPMI-1640) that had been warmed in advance at 37° C., and added to the wells from which the medium had been removed.
(3) A color reaction was performed for 1 hour in a CO2 incubator, and absorbance at 450 nm and 650 nm was measured with an absorbance plate reader.
(4) Absorbance at 450 nm-absorbance at 650 nm was calculated for purposes of correction between plates.
(5) The average of the 4 blank wells was subtracted from the corrected value of all wells, and the result was given as the relative corresponding cell number.

The next series deals with BEAS-2B. Kind of series: Permeability test, 4-kilodalton fluorescent dextran through BEAS-2B cell sheet (Papp). The note with it: EP 1 mM, 7 days after seeding. Format: cell-based, human. How it is done: Cells of the established normal human airway epithelial cell line BEAS-2B were seeded to 1×10^5 cells/cm^2 on a cell culture insert (353104, BD Falcon) (FIG. 14). 10% FBS RPMI-1640 was used as the medium. The amount of medium was 200 μl on the insert side and 750 μl on the well side. Beginning the next day, substitution/medium replacement was performed once a day with 1% FBS RPMI-1640 prepared with the following 4 reagent conditions, and transepithelial electrical resistance (TER) was measured with MilliCell (Millipore). • Condition 1: Control • Condition 2: EP 1 mM • Condition 3: Dexamethasone 1 μM (dexamethasone (Dex): positive control substance known to enhance barrier function) • Condition 4: EP 1 mM and Dex 1 μM
7 days after cell seeding a permeability test was performed as follows.
A 4-kilodalton fluorescent dextran molecule (Sigma) was added to the cell culture insert to a concentration of 0.1 mg/ml, 20 μl of the medium on the well side was removed after 1 hour, and the amount of permeating fluorescent dextran was estimated from the fluorescent strength at each concentration. The permeation rate Papp of a substance from the insert side to the well side is normally determined by the following formula.
Papp=(volume of medium on well side/insert area×initial insert concentration)×(altered concentration on well side/elapsed time)

The subject of a further series is HEK 293. Kind of series: WST-8 proliferation test, HEK 293 immortalized model cells. Format: cell-based, human. The note with it: 0% FBS, 96 hours, even at high concentrations. The procedure: 0% FBS RPMI-1640 was used as the medium. 24 hours after seeding the cells were washed with 20 μl per well of PBS, and the medium was replaced with 0% FBS RPMI-1640. Following medium replacement, EP solution with 10 times the set concentration was added 10 μl per well, and a proliferation test (WST-8 assay) was performed 96 hours after addition of EP.

The next series relates to THP-1. As to the kind of experiment: WST-8 proliferation test, THP-1 floating cells. Format: cell-based, human. The note with it: 0% FBS, 72 hours, high concentrations of 125 μM or more. How it is done: THP-1 (human acute monocytic leukemia cells) and HL-60 (human myeloid leukemia cells) were logarithmically growth cultured in 10% FBS RPMI-1640 to 2 to 10×10^5 cells/cm^2 to achieve logarithmic growth before EP administration. The cell culture liquid was then centrifuged and precipitated at 1000 rpm, and 90 μl per well was dispensed onto a 96-well plate to 2×10^4 cells/cm^2 in 0% FBS RPMI-1640. […] For the WST-8 assay of the floating cells, 10 μl per well of WST-8 assay reagent was added directly to the cell suspension during culture, and after 1 hour absorbance at 450 nm and 600 nm was measured with a plate reader and the data were analyzed as in the examples above.

The subject of another series is Calu-3 cells. As to the kind of experiment: Transepithelial electrical resistance (TER), Calu-3. The format is cell-based, human. As to conditions: 1 mM EP, 0.1% FBS. How it is done: Calu-3 cells were seeded to 3×10^5 cells/cm^2 on a cell culture insert (353104, BD Falcon). They were cultured until confluent in 10% FBS RPMI-1640, and once confluence was reached, 0.1% FBS RPMI-1640 containing the following was substituted, and the medium was replaced every day. TER was measured as in Example 11. The results are shown in FIG. 15. • Condition 1: Control • Condition 2: 1 μM dexamethasone • Condition 3: 1 mM EP

Regarding `NCCOP(=O)(O)O` [EP, Ethanolamine phosphate], in the series with HBEpC cells (7 μM, BEBM basal medium, 96 hours), the growth-stimulating effect entry is given as “roughly two-fold”. Moreover, the toxicity result with HBEpC cells (mM level) is listed as “no toxicity”. In the series with caspase 3/7, the “FBS concentration whose effect EP 1000 μM corresponds to (regression curve)” value turned out to be 2.2%. In addition, the “caspase 3/7 activity per cell” value in the series with caspase 3/7 (1000 μM) is reported as “about 0.72 fold”. Moreover, in the series on HHDPC cells (6 days), the “effective concentration range for proliferative effect” value is on record as “very broad concentration range” and the proliferative effect entry is given as “equal to or greater than that of minoxidil”. For the same molecule, the cell toxicity entry in the series on HHDPC cells (high concentrations) was “non-toxic”. For the same molecule, in the series on HEKa cells, the growth-stimulating effect entry was “growth-stimulating effect” and the “minimum concentration giving roughly the maximum growth-stimulating effect” value was 15.6 µM. Also, the “proliferation of BEAS-2B cells” value in the series with BEAS-2B cells (0-0.5% FBS, 96 hours) is “dependent on EP concentration”. Besides, the “toxicity attributable to EP” value in the series with BEAS-2B cells (high-concentration range (mM level)) is given as “no obvious toxicity”. Further, in the series with BEAS-2B cells (medium contains no FBS, 96 hours), the “cell proliferation, ratio relative to control using 0 μM EP” value was not above 11 times. Further, in the series on BEAS-2B, the “permeation rate Papp of fluorescent dextran, lower than control” value is given as 25%. Further, in the series with HEK 293, the cell proliferation ability result is reported as “absolutely no cell proliferation ability”. For the same molecule, the cell proliferation effect result with THP-1 is “small cell proliferation effect”. Besides, the “rise in TER value relative to the control” value in the series with Calu-3 cells came out at 2.0 fold.
